Each structure is given as a SMILES string.

The record followed here is patent US5849753A, “Pyridyl imidazole derivatives and processes for the preparation thereof” (Korea Research Institute of Chemical Technology, priority 1994, dated 1998).

The test system of one data set is renal hypertensive rat. Put plainly: Blood pressure lowering effect on oral administration to rats at several doses. Format: in vivo, male Sprague-Dawley rats.
The subject of data set [1] is furosemide-administered dogs. Put plainly: Duration of action in furosemide-administered dogs. The format is in vivo, dog. Particulars: for blood pressure lowering effect with time: 1 mg, per os. How it is done:
The test dogs were anesthetized with 30 mg/kg of pentobarbital sodium by intravenous injection and the left femoral artery and femoral vein were separated carefully. Silicone catheter, specially prepared and filled with saline treated with heparin(1,000 IU/ml), was cannulated into the blood vessels. After the surgery, the dogs were constrained to measure their blood pressure continuously with Gould 2000 physiograph adapted to a Grass P23 XL pressure transducer; and their heart rates were monitored with ECG/Biotacho amplifier. The dogs were tested at least 2 days after the surgery.
10 mg/kg of furosemide was injected intramuscularly 18 hours(in case of intravenous injection, 2 hours) before the beginning of the test (administration of the test compound) to improve the activity of renin in blood plasma. After the injection of furosemide, neither food nor water was provided. […] The blood pressure and heart rate were measured up to 8 hours after the administration of each test compound.
The compound of Example 8 and the Merck compound were administered orally to the furosemide-administrated dogs as in test 3(i), and blood pressure lowering effect was measured with time.

Data set [2] in a line: Metabolite analysis (enzyme digestion test). Particulars: rat liver microsome and NADPH, 1 hour, 37° C. The format is in vitro ADME, male rats. How it is done: Enzyme digestion test was executed in order to detect the metabolite of the test compound in vivo.
A liver microsome and NADPH system of male rats were added to each of the present compound(Example 8) and the control compound(Merck), and the mixture was incubated for 1 hour at 37° C. The resultant was extracted with methanol or dichloromethane, and, thereafter, the organic layer was evaporated to obtain a residue. The residue was analyzed using high pressure liquid chromatography.
On the technique in general: Liver microsomes are vesicles of endoplasmic reticulum, rich in cytochrome P450 enzymes.

On to `CCCCc1nc2cc(-c3ccccn3)c(C(OC)OC)nc2n1Cc1ccc(-c2ccccc2-c2nnn[nH]2)cc1` [Example 8, 2-butyl-5-dimethoxymethyl-6-(pyridin-2-yl)-3-[2'-(1H-tetrazol-5-yl)-biphenyl-4-ylmethyl]-3H-imidazo[4,5-b]pyridine], for which the “blood pressure lowering effect” value with renal hypertensive rat (1 mg/kg) is 32%; in the data set on renal hypertensive rat (3 mg/kg) it was 35-37%. The “blood pressure lowering effect with time” value in data set [1] (0 min) is listed as 0%; in data set [1] (10 min) it was 0%; in data set [1] (20 min) it was -8%; in data set [1] (30 min) it was -16.2%; in data set [1] (60 min), -23.8%; in data set [1] (90 min), -26.0%. Moreover, the “blood pressure lowering effect with time” value was -30.0% in data set [1] (120 min); -31.7% in data set [1] (150 min); -31.7% in data set [1] (180 min); -31.2% in data set [1] (210 min); -32.7% in data set [1] (240 min); -33.9% in data set [1] (270 min). The “blood pressure lowering effect with time” value in data set [1] (300 min) was -34.9%; in data set [1] (330 min), -37.0%; in data set [1] (360 min) it was -35.5%; in data set [1] (390 min), -36.4%; in data set [1] (420 min) it was -34.9%; in data set [1] (450 min), -33.0%. Further, the “blood pressure lowering effect with time” value in data set [1] (480 min) is given as -33.0%. The “maximum blood pressure lowering effect lasted up to (after the administration)” value in data set [1] (furosemide-administered dogs, oral, as shown in Table 6) was “up to 8 hours”. Besides, in data set [2] (HPLC), the “metabolite from the enzymatic digestion” value was “no metabolite”. Also, the “stability against the enzymatic digestion” value in data set [2] (in contrast with the Merck compound) is recorded as “good stability”.
